Experimental data: patent publication US20200131142A1, “FARNESOID X RECEPTOR AGONISTS AND USES THEREOF” (Metacrine, Inc., priority 2017, published 2020)

The compounds below were run against T1, hFXR (Homo sapiens, UniProt Q96RI1) (assay: In Vitro FXR Assay (TK): hFXR/hRXR TK-ECRE-luc reporter in transfected CV-1 cells). Conditions: 18 hrs incubation, luminescence, compounds with maximum efficacy <25% of the Fexarmine control classified as '+'.
T1 construct: expressed in transfected cells; host or cells: CV-1 cells
T1 sequence (Q96RI1 1-486): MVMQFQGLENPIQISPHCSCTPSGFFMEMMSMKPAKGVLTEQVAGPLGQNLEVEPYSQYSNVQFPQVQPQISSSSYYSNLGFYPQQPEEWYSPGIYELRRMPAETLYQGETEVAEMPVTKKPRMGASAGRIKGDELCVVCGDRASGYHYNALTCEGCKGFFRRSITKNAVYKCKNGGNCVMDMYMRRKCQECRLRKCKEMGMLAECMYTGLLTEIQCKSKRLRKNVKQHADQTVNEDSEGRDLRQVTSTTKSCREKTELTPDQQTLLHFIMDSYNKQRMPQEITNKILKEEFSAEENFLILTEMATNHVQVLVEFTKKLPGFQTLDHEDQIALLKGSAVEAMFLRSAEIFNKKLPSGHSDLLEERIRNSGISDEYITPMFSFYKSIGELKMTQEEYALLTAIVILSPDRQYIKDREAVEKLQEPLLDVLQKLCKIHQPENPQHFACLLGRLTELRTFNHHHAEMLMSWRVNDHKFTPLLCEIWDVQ
T1 sequence (P19793 1-462 partner): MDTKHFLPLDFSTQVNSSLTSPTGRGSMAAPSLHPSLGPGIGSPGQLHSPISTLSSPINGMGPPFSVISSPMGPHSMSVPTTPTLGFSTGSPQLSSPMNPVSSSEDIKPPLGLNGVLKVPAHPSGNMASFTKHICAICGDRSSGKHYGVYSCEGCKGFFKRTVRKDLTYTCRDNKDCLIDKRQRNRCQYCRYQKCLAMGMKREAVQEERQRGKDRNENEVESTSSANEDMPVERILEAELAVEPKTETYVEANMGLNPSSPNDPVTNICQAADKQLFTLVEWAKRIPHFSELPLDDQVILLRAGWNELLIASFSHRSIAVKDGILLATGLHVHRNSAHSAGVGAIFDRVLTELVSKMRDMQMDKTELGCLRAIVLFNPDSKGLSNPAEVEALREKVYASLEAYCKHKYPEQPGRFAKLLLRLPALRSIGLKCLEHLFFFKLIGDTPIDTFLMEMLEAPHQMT
Format: cell-based
Method: Example B-1: In Vitro FXR Assay (TK)
CV-1 cells were seeded at a density of 2,000,000 cells in a T175 flask with DMEM+10% charcoal double-stripped FBS and incubated at 37° C. in 5% CO2 for 18 h (O/N).
After 18 h of incubation, the medium in the T175 flask was changed with fresh DMEM+10% charcoal super-stripped serum. In a polypropylene tube, 2500 μL OptiMEM (Life Technologies, Cat #31985-062) was combined with expression plasmids for hFXR, hRXR, TK-ECRE-luc and pCMX-YFP. The tube was then briefly vortexed and incubated at room temperature for 5 minutes. Transfection reagent (X-tremeGENE HP from Roche, Cat #06 366 236 001) was added to the OptiMEM/plasmid mixture vortexed and incubated at room temperature for 20 minutes. Following incubation, the transfection reagent/DNA mixture complex was added to cells in the T175 flask and the cells were incubated at 37° C. in 5% CO2 for 18 h (O/N).
Compounds were serially diluted in DMSO and added to transfected CV-1 cells. The cells were then incubated for 18 hrs. The next day cells were lysed and examined for luminescence.
With `Cc1cc([C@H]2CC[C@H](CN(c3cccc(-c4cnc(C5CC5)s4)c3)C(=O)[C@H]3CC[C@H](O)CC3)CC2)ccc1N(C)S(C)(=O)=O` [Compound 9.15, trans-N-(3-(2-Cyclopropylthiazol-5-yl)phenyl)-4-hydroxy-N-((trans-4-(3-methyl-4-(N-methylmethylsulfonamido)phenyl)cyclohexyl)methyl)cyclohexanecarboxamide] the EC50 was 250 to 1000 nM.
For `COc1ccc([C@H]2CC[C@H](CN(c3cccc(-c4cncs4)c3)C(=O)[C@H]3CC[C@H](O)CC3)CC2)cc1C` [Compound 6.02, trans-4-Hydroxy-N-((trans-4-(4-methoxy-3-methylphenyl)cyclohexyl)methyl)-N-(3-(thiazol-5-yl)phenyl)cyclohexanecarboxamide], the EC50 was 250 to 1000 nM.
For `COc1ncc(-c2cccc(N(C[C@H]3CC[C@@H](c4ccc(OC)c(C)c4)CC3)C(=O)[C@H]3CC[C@H](O)CC3)c2)s1` [Compound 2, trans-4-Hydroxy-N-((cis-4-(4-methoxy-3-methylphenyl)cyclohexyl)methyl)-N-(3-(2-methoxythiazol-5-yl)phenyl)cyclohexanecarboxamide], the EC50 was ≥ 1000 nM.
In the case of `COc1ccc([C@H]2CC[C@H](CN(c3cccc(C#Cc4cncs4)c3)C(=O)[C@H]3CC[C@H](O)CC3)CC2)cc1C` [Compound 8.01, trans-4-Hydroxy-N-((trans-4-(4-methoxy-3-methylphenyl)cyclohexyl)methyl)-N-(3-(thiazol-5-ylethynyl)phenyl)cyclohexanecarboxamide], the EC50 is reported as ≤ 250 nM.
With `COc1ccc([C@H]2CC[C@H](CN(c3cccc(-c4cnc(C5CC5)s4)c3)C(=O)[C@H]3CC[C@H](O)CC3)CC2)nc1C` [Compound 9.19, trans-N-(3-(2-Cyclopropylthiazol-5-yl)phenyl)-4-hydroxy-N-((trans-4-(5-methoxy-6-methylpyridin-2-yl)cyclohexyl)methyl)cyclohexanecarboxamide] the EC50 was ≤ 250 nM.
Work on `COc1ccc([C@H]2CC[C@H](CN(c3cccc(NCc4nccs4)c3)C(=O)[C@H]3CC[C@H](O)CC3)CC2)cc1C` [Compound 15, trans-4-Hydroxy-N-((trans-4-(4-methoxy-3-methylphenyl)cyclohexyl)methyl)-N-(3-((thiazol-2-ylmethyl)amino)phenyl)cyclohexanecarboxamide] yielded an EC50 of 250 to 1000 nM.
`COc1ncc(-c2cccc(N(C[C@H]3CC[C@H](c4ccc(OC)c(C)c4)CC3)C(=O)C3CCOCC3)c2)s1` [Compound 9.30, N-((trans-4-(4-Methoxy-3-methylphenyl)cyclohexyl)methyl)-N-(3-(2-methoxythiazol-5-yl)phenyl)tetrahydro-2H-pyran-4-carboxamide] was tested, and the EC50 was ≤ 250 nM.
With `Cn1ccc2cc([C@H]3CC[C@H](CN(c4cccc(-c5cnc(C6CC6)s5)c4)C(=O)[C@H]4CC[C@H](O)CC4)CC3)ncc21` [Compound 9.17, trans-N-(3-(2-Cyclopropylthiazol-5-yl)phenyl)-4-hydroyx-N-((trans-4-(1-methyl-1H-pyrrolo[2,3-c]pyridin-5-yl)cyclohexyl)methyl)cyclohexanecarboxamide] the EC50 was 250 to 1000 nM.
In the case of `COc1ccc([C@H]2CC[C@H](CN(c3cccc(OCc4nccs4)c3)C(=O)[C@H]3CC[C@H](O)CC3)CC2)cc1C` [Compound 16, trans-4-Hydroxy-N-((trans-4-(4-methoxy-3-methylphenyl)cyclohexyl)methyl)-N-(3-(thiazol-2-ylmethoxy)phenyl)cyclohexanecarboxamide], the EC50 is reported as ≤ 250 nM.
`CCc1ncc(-c2cccc(N(C[C@H]3CC[C@H](c4ccc(OC)c(C)c4)CC3)C(=O)[C@H]3CC[C@H](O)CC3)c2)s1` [Compound 7.05, trans-N-(3-(2-Ethylthiazol-5-yl)phenyl)-4-hydroxy-N-((trans-4-(4-methoxy-3-methylphenyl)cyclohexyl)methyl) cyclohexanecarboxamide] was tested, and the EC50 was ≤ 250 nM.
With `COc1ccc([C@H]2CC[C@H](CN(c3cccc(-c4cnc(N5CCCCC5)s4)c3)C(=O)[C@H]3CC[C@H](O)CC3)CC2)cc1C` [Compound 7.14, trans-4-Hydroxy-N-((trans-4-(4-methoxy-3-methylphenyl)cyclohexyl)methyl)-N-(3-(2-(piperidin-1-yl)thiazol-5-yl)phenyl)cyclohexanecarboxamide] the EC50 was ≤ 250 nM.
In the case of `COc1ccc([C@H]2CC[C@H](CN(c3cccc(-c4cnc(C5CC5)s4)c3)C(=O)[C@H]3CC[C@H](O)CC3)CC2)cc1C` [Compound 7, trans-N-(3-(2-Cyclopropylthiazol-5-yl)phenyl)-4-hydroxy-N-((trans-4-(4-methoxy-3-methylphenyl)cyclohexyl)methyl) cyclohexanecarboxamide], the EC50 is reported as ≤ 250 nM.
`COc1ncc(-c2cccc(N(C[C@H]3CC[C@H](c4ccc(OC)c(C)c4)CC3)C(=O)[C@H]3CC[C@H](OC)CC3)c2)s1` [Compound 9.33, trans-4-Methoxy-N-((trans-4-(4-methoxy-3-methylphenyl)cyclohexyl)methyl)-N-(3-(2-methoxythiazol-5-yl)phenyl)cyclohexanecarboxamide] was tested, and the EC50 was ≤ 250 nM.
`COc1ncc(-c2cccc(N(C[C@H]3CC[C@H](c4ccc(OC)c(C)c4)CC3)C(=O)[C@H]3CC[C@H](OC(C)C)CC3)c2)s1` [Compound 9.34, trans-4-Isopropoxy-N-((trans-4-(4-methoxy-3-methylphenyl)cyclohexyl)methyl)-N-(3-(2-methoxythiazol-5-yl)phenyl)cyclohexanecarboxamide] was tested, and the EC50 was ≤ 250 nM.
With `COc1ccc([C@H]2CC[C@H](CN(c3cccc(-c4csc(C)n4)c3)C(=O)[C@H]3CC[C@H](O)CC3)CC2)cc1C` [Compound 7.02, trans-4-Hydroxy-N-((trans-4-(4-methoxy-3-methylphenyl)cyclohexyl)methyl)-N-(3-(2-methylthiazol-4-yl)phenyl)cyclohexanecarboxamide] the EC50 was 250 to 1000 nM.
With `COc1ccc([C@H]2CC[C@H](CN(c3cccc(-c4cnc(C(C)(C)C)s4)c3)C(=O)[C@H]3CC[C@H](O)CC3)CC2)cc1C` [Compound 7.07, trans-N-(3-(2-(tert-Butyl)thiazol-5-yl)phenyl)-4-hydroxy-N-((trans-4-(4-methoxy-3-methylphenyl)cyclohexyl)methyl) cyclohexanecarboxamide] the EC50 was ≤ 250 nM.
In the case of `COc1ccc([C@H]2CC[C@H](CN(c3cccc(-c4cnc(C5CCC5)s4)c3)C(=O)[C@H]3CC[C@H](O)CC3)CC2)cc1C` [Compound 7.08, trans-N-(3-(2-Cyclobutylthiazol-5-yl)phenyl)-4-hydroxy-N-((trans-4-(4-methoxy-3-methylphenyl)cyclohexyl)methyl) cyclohexanecarboxamide], the EC50 is reported as ≤ 250 nM.
For `CCn1cc([C@H]2CC[C@H](CN(c3cccc(-c4cnc(C5CC5)s4)c3)C(=O)[C@H]3CC[C@H](O)CC3)CC2)cn1` [Compound 9.18, trans-N-(3-(2-Cyclopropylthiazol-5-yl)phenyl)-N-((trans-4-(1-ethyl-1H-pyrazol-4-yl)cyclohexyl)methyl)-4-hydroxycyclohexanecarboxamide], the EC50 was ≤ 250 nM.
Compound `CCO[C@H]1CC[C@H](C(=O)N(C[C@H]2CC[C@H](c3ccc(OC)c(C)c3)CC2)c2cccc(-c3cnc(OC)s3)c2)CC1` [Compound 4, trans-4-Ethoxy-N-((trans-4-(4-methoxy-3-methylphenyl)cyclohexyl)methyl)-N-(3-(2-methoxythiazol-5-yl)phenyl)cyclohexanecarboxamide] has an EC50 of 250 to 1000 nM.
In the case of `COc1ccc([C@H]2CC[C@H](CN(c3cccc(C#Cc4nc(C)cs4)c3)C(=O)[C@H]3CC[C@H](O)CC3)CC2)cc1C` [Compound 8.03, trans-4-Hydroxy-N-((trans-4-(4-methoxy-3-methylphenyl)cyclohexyl)methyl)-N-(3-((4-methylthiazol-2-yl)ethynyl)phenyl)cyclohexanecarboxamide], the EC50 is reported as ≤ 250 nM.
For `COc1ncc(-c2cccc(N(C[C@H]3CC[C@H](c4ccc5c(c4)c(F)nn5C)CC3)C(=O)[C@H]3CC[C@H](O)CC3)c2)s1` [Compound 9.10, trans-N-((trans-4-(3-Fluoro-1-methyl-1H-indazol-5-yl)cyclohexyl)methyl)-4-hydroxy-N-(3-(2-methoxythiazol-5-yl)phenyl)cyclohexanecarboxamide], the EC50 was ≤ 250 nM.
